Source: PubChem BioAssay (NCI)
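Growth conditions: 96-well plates. Treatment: test compound, 48 hours, 5 concentrations. Analysis: linear interpolation between bracketing concentrations; unreached endpoints set to highest concentration. Here, GI50 denotes the concentration required for 50% inhibition of growth. The concentration for full growth arrest is given as TGI.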

Columns and labels:
Assay in all cases: growth of human tumour cells (NCI), 48 h
IGROV1 ovarian = tested on: IGROV1 ovarian
HCC-2998 colon = tested on: HCC-2998 colon
786-0 renal = tested on: 786-0 renal
K-562 leukemia = tested on: K-562 leukemia
HS 578T breast = tested on: HS 578T breast
SF-539 CNS = tested on: SF-539 CNS
SF-295 CNS = tested on: SF-295 CNS
RXF 393 renal = tested on: RXF 393 renal
CCRF-CEM leukemia = tested on: CCRF-CEM leukemia
MCF7 breast = tested on: MCF7 breast
SF-268 CNS = tested on: SF-268 CNS
MDA-MB-435 = tested on: MDA-MB-435
PC-3 prostate = tested on: PC-3 prostate
OVCAR-4 ovarian = tested on: OVCAR-4 ovarian
A549 NSCLC = tested on: A549 NSCLC
UO-31 renal = tested on: UO-31 renal
EKVX NSCLC = tested on: EKVX NSCLC
MOLT-4 leukemia = tested on: MOLT-4 leukemia
NCI/ADR-RES ovarian = tested on: NCI/ADR-RES ovarian
HCT-15 colon = tested on: HCT-15 colon
CAKI-1 renal = tested on: CAKI-1 renal
TK-10 renal = tested on: TK-10 renal
HOP-62 NSCLC = tested on: HOP-62 NSCLC
OVCAR-8 ovarian = tested on: OVCAR-8 ovarian
LOX IMVI melanoma = tested on: LOX IMVI melanoma
HCT-116 colon = tested on: HCT-116 colon
SK-MEL-2 melanoma = tested on: SK-MEL-2 melanoma
SK-MEL-5 melanoma = tested on: SK-MEL-5 melanoma
HL-60(TB) leukemia = tested on: HL-60(TB) leukemia
HT29 colon = tested on: HT29 colon
UACC-62 melanoma = tested on: UACC-62 melanoma
RPMI-8226 leukemia = tested on: RPMI-8226 leukemia
KM12 colon = tested on: KM12 colon
COLO 205 colon = tested on: COLO 205 colon
SR leukemia = tested on: SR leukemia
DU-145 prostate = tested on: DU-145 prostate
U251 CNS = tested on: U251 CNS
NCI-H522 lung = tested on: NCI-H522 lung
SN12C renal = tested on: SN12C renal
T-47D breast = tested on: T-47D breast
NCI-H23 lung = tested on: NCI-H23 lung
MDA-MB-231 breast = tested on: MDA-MB-231 breast
SK-MEL-28 melanoma = tested on: SK-MEL-28 melanoma
OVCAR-3 ovarian = tested on: OVCAR-3 ovarian
NCI-H460 lung = tested on: NCI-H460 lung
OVCAR-5 ovarian = tested on: OVCAR-5 ovarian
NCI-H226 lung = tested on: NCI-H226 lung
SK-OV-3 ovarian = tested on: SK-OV-3 ovarian
SW-620 colon = tested on: SW-620 colon
A498 renal = tested on: A498 renal
M14 melanoma = tested on: M14 melanoma
MALME-3M melanoma = tested on: MALME-3M melanoma
HOP-92 NSCLC = tested on: HOP-92 NSCLC
SNB-75 CNS = tested on: SNB-75 CNS
UACC-257 melanoma = tested on: UACC-257 melanoma
SNB-19 CNS = tested on: SNB-19 CNS
ACHN renal = tested on: ACHN renal
BT-549 breast = tested on: BT-549 breast

## COc1ccc(-c2cc(Nc3ccnc(N4CCOCC4)n3)on2)cc1
IGROV1 ovarian
  GI50: 0.245 µM
  TGI: 16.9 µM
HCC-2998 colon
  GI50: 0.461 µM
  TGI: 10.6 µM
786-0 renal
  GI50: 0.376 µM
  TGI: 8.4 µM
K-562 leukemia
  GI50: 0.047 µM
  TGI: 20.9 µM
HS 578T breast
  GI50: 0.303 µM
  TGI: 9.8 µM
SF-539 CNS
  GI50: 0.264 µM
  TGI: 1.16 µM
SF-295 CNS
  GI50: 0.171 µM
  TGI: 5.95 µM
RXF 393 renal
  GI50: 0.16 µM
  TGI: 0.564 µM
CCRF-CEM leukemia
  GI50: 0.267 µM
  TGI: > 34.5 µM
MCF7 breast
  GI50: 0.258 µM
  TGI: 12.3 µM
SF-268 CNS
  GI50: 1.85 µM
  TGI: 18.1 µM
MDA-MB-435
  GI50: 0.0307 µM
  TGI: 0.121 µM
PC-3 prostate
  GI50: 0.241 µM
  TGI: 24.2 µM
OVCAR-4 ovarian
  GI50: 1.72 µM
  TGI: 18.5 µM
A549 NSCLC
  GI50: 0.224 µM
  TGI: 12.1 µM
UO-31 renal
  GI50: 0.742 µM
  TGI: 13.8 µM
EKVX NSCLC
  GI50: 0.685 µM
  TGI: 17 µM
MOLT-4 leukemia
  GI50: 0.766 µM
  TGI: 25.5 µM
NCI/ADR-RES ovarian
  GI50: 0.143 µM
  TGI: 5.76 µM
HCT-15 colon
  GI50: 0.0645 µM
  TGI: 13 µM
CAKI-1 renal
  GI50: 0.089 µM
  TGI: 18.7 µM
TK-10 renal
  GI50: 10.9 µM
  TGI: 24.9 µM
HOP-62 NSCLC
  GI50: 0.372 µM
  TGI: 16.8 µM
OVCAR-8 ovarian
  GI50: 0.443 µM
  TGI: 11.4 µM
LOX IMVI melanoma
  GI50: 0.353 µM
  TGI: 15.3 µM
HCT-116 colon
  GI50: 0.081 µM
  TGI: 13 µM
SK-MEL-2 melanoma
  GI50: 0.457 µM
  TGI: 29.5 µM
SK-MEL-5 melanoma
  GI50: 0.189 µM
  TGI: 2.07 µM
HL-60(TB) leukemia
  GI50: 0.2 µM
  TGI: 1.88 µM
HT29 colon
  GI50: 0.243 µM
  TGI: 11.5 µM
UACC-62 melanoma
  GI50: 0.115 µM
  TGI: 15.9 µM
RPMI-8226 leukemia
  GI50: 0.416 µM
  TGI: 18.6 µM
KM12 colon
  GI50: 0.0893 µM
  TGI: 12.3 µM
COLO 205 colon
  GI50: 0.239 µM
  TGI: 1.53 µM
SR leukemia
  GI50: 0.0566 µM
  TGI: > 100 µM
DU-145 prostate
  GI50: 0.302 µM
  TGI: 13.4 µM
U251 CNS
  GI50: 0.329 µM
  TGI: 12.7 µM
NCI-H522 lung
  GI50: 0.0815 µM
  TGI: 3.12 µM
SN12C renal
  GI50: 0.7 µM
  TGI: 16.6 µM
T-47D breast
  GI50: 0.566 µM
  TGI: 21.6 µM
NCI-H23 lung
  GI50: 0.516 µM
  TGI: 29.1 µM
MDA-MB-231 breast
  GI50: 0.339 µM
  TGI: 22.5 µM
SK-MEL-28 melanoma
  GI50: 4.1 µM
  TGI: 19.9 µM
OVCAR-3 ovarian
  GI50: 0.0728 µM
  TGI: 2.66 µM
NCI-H460 lung
  GI50: 0.24 µM
  TGI: 10.4 µM
OVCAR-5 ovarian
  GI50: 0.684 µM
  TGI: 20.8 µM
NCI-H226 lung
  GI50: 0.751 µM
  TGI: 9.82 µM
SK-OV-3 ovarian
  GI50: 0.351 µM
  TGI: 22.5 µM
SW-620 colon
  GI50: 0.0914 µM
  TGI: 18.5 µM
A498 renal
  GI50: 0.343 µM
  TGI: 2.41 µM
M14 melanoma
  GI50: 0.0957 µM
  TGI: 14.8 µM
MALME-3M melanoma
  GI50: 0.289 µM
  TGI: 17.4 µM
HOP-92 NSCLC
  GI50: 3.46 µM
  TGI: 22.5 µM
SNB-75 CNS
  GI50: 0.1 µM
  TGI: 0.576 µM
UACC-257 melanoma
  GI50: 1.48 µM
  TGI: 11.4 µM
SNB-19 CNS
  GI50: 0.428 µM
  TGI: 17.6 µM
ACHN renal
  GI50: 0.74 µM
  TGI: 13.6 µM
BT-549 breast
  GI50: 0.802 µM
  TGI: 15.1 µM
